Source: ChEMBL document CHEMBL3301361, “Experimental in vitro DMPK and physicochemical data on a set of publicly disclosed compounds”
≈ marks a conversion by molar mass, not a printed value.

Experiments:
in vitro [1] = details: human
in vitro [2] = details: hepatocytes
physchem [3] = details: octan-1-ol/water
physchem [4] = details: pH 7.4 buffer
in vitro [5] = details: human, plasma

Compound | microsomal CLint (in vitro [1]; microsomes) [µL/min/mg] | hepatocyte CLint (in vitro [2]) [µL/min/1e6 cells] | logD (physchem [3]; pH 7.4, LogD7.4) | solubility thermodynamic (physchem [4]) [µM] | fraction unbound at 5 h (in vitro [5]) | microsomal CLint (in vitro [1]; liver microsomes) [µL/min/mg] | fraction unbound at 5 h (in vitro [5]; PPB) | logD (physchem [3]; pH 7.4)
CCN(CC)CCn1c2ccccc2c2cnc(N)c(C#N)c21 | 71 | 77 | 2.7 | 58.9 (≈ 18.1 µg/mL) |  |  |  | 
COCCNc1nc(NCc2ccccc2F)c2sccc2n1 |  | 148 |  |  | 0.028 | > 150 |  | 
CNc1nc(C)c(-c2nc(Nc3cccc(N4CCCCC4)c3)ncc2C#N)s1 |  | > 150 |  |  |  | 95.5 | 0.0019 | 
Cc1nc2ccccn2c1-c1ccnc(N)n1 | 50.1 | 21.4 |  | 1510 (≈ 341 µg/mL) |  |  |  | 
Cc1cc(CN2CCc3ccccc3C2C(=O)Nc2ccc(Cl)cc2Cl)ccc1OCC(=O)O (configuration not stated) | 15 | 20 | 2.63 | 166 (≈ 82.9 µg/mL) |  |  |  | 
CS(=O)(=O)c1ccc([C@@H](CC2CCCC2)C(=O)Nc2nccs2)cc1 [Ro-281675] | 29.5 | 20.9 | 3.86 | 5.5 (≈ 2.08 µg/mL) |  |  |  | 
O=C(CCOCCc1ccccc1)NCCNCCc1ccc(O)c2nc(O)sc12 | 25 | 72 |  | 1510 (≈ 650 µg/mL) |  |  |  | 
Oc1ncnc2c1c(-c1ccccc1)cn2-c1ccc(Br)cc1 |  | 52.5 |  | 1.6 (≈ 0.586 µg/mL) |  | 60.3 |  | 
Cc1ccc(CNC(=O)C2CCCN2S(=O)(=O)c2ccc(F)cc2)cc1 (configuration not stated) |  | > 150 | 2.9 | 8.9 (≈ 3.35 µg/mL) |  | > 150 |  | 
C[C@]1(O)C[C@@H](c2nc(-c3ccc4ccc(-c5ccccc5)nc4c3)c3c(N)nccn32)C1 [LINSITINIB] |  | 17 |  | 1.3 (≈ 0.548 µg/mL) |  | 17.4 |  | 
Cc1ccc(S(=O)(=O)Nc2c(C(=O)N[C@@H](C)C(C)(C)C)c(C)nn2C2CCCCC2)cc1 | 33 | 8 | 1.97 | 871 (≈ 401 µg/mL) |  |  |  | 
N#CC1(NC(=O)[C@@H]2CCCC[C@H]2C(=O)N2CCc3[nH]c4ccc(F)cc4c3C2)CC1 |  | 41.4 |  | 525 (≈ 214 µg/mL) |  | 12.5 |  | 
Cn1c(-c2ccccc2C(F)(F)F)nnc1C12CCC(c3noc(-c4ccc(F)cc4)n3)(CC1)CC2 |  | 7.94 |  | 0.9 (≈ 0.448 µg/mL) |  | < 3 |  | 
CN(C)CCNc1cc(-c2ccccc2)nc2cc(-c3ccc(F)cc3)nn12 | 11.2 | 24 | 4.5 | 2.1 (≈ 0.788 µg/mL) |  |  |  | 
COc1cc(Nc2nc3c(cc2F)ncn3[C@@H](CO)c2ccc(F)cn2)n[nH]1 | 7.24 | 27.5 | 2.18 |  |  |  |  | 
COc1c(Nc2ccc(S(C)(=O)=O)nc2C)ncnc1OC1CCN(C(=O)OC(C)C)CC1 [ADP-597] | 19.9 | 6.31 | 2.4 |  |  |  |  | 
O=c1[nH]c2c(O)ccc([C@@H](O)CNCCc3cccc(CN4CCC(c5ccccc5)CC4)c3)c2s1 | 27 | 29 | 1.99 |  |  |  |  | 
O=C1NC(=O)/C(=C/c2ccc3c(c2)OC(F)(F)O3)S1 |  | 4.17 | 2.8 |  |  | 19.5 |  | 
CC(=O)c1ncccc1NC(=O)[C@H]1CC[C@H](N2C(=O)[C@@H]3[C@@H]4CC[C@@H](C4)[C@@H]3C2=O)CC1 |  | > 150 | 3.01 |  |  | 16.6 |  | 
Cc1ccc(S(=O)(=O)Nc2c(C(=O)NC3CCCCC3C)cnn2-c2ccccc2)cc1 (configuration not stated) |  | 5 | 1.34 |  |  | 59 |  | 

Compound | microsomal CLint (in vitro [1]; microsomes) [µL/min/mg] | hepatocyte CLint (in vitro [2]) [µL/min/1e6 cells] | logD (physchem [3]; pH 7.4, LogD7.4) | solubility thermodynamic (physchem [4]) [µM] | fraction unbound at 5 h (in vitro [5]) | microsomal CLint (in vitro [1]; liver microsomes) [µL/min/mg] | fraction unbound at 5 h (in vitro [5]; PPB) | logD (physchem [3]; pH 7.4)
CN1CCC(Oc2cccc3ncnc(Nc4ccc(OCc5ccccn5)c(Cl)c4)c23)CC1 |  | 11 |  | 1.5 (≈ 0.714 µg/mL) |  | 22 |  | 
COc1cc(-c2ccc(Nc3ccccc3C(=O)O)c(OC)c2)ccc1Nc1ccccc1C(=O)O |  | 31.6 | 1.8 |  |  | 6.61 |  | 
COc1nc(N)nc2c1ncn2[C@@H]1O[C@H](CO)[C@@H](O)[C@H]1O | 42.7 | 10.5 |  |  |  |  |  | -0.58
CS(=O)(=O)c1ccc([C@H](CC2CCCC2)C(=O)Nc2nccs2)cc1 | 43.6 | 35.5 | 3.88 | 5.8 (≈ 2.2 µg/mL) |  |  |  | 
Cc1nn(-c2ccc(F)cc2)c(NS(=O)(=O)c2cccnc2)c1C(=O)N[C@@H](C)C(C)(C)C |  | 12 | 0.4 |  |  | < 3 |  | 
CCOc1ccc2oc(C(=O)NC(CCSC)c3nc4cnccc4[nH]3)c(C)c2c1 (configuration not stated) |  | 21 | 4.31 | 10.5 (≈ 4.46 µg/mL) |  | 17 |  | 
N#Cc1cccc(NCC(=O)Nc2c(Cl)ccc3nc(N4CC[C@@H](O)C4)ccc23)c1 | 30 | 8 | 2.39 |  |  |  |  | 
CCOc1nc2cccc(C(=O)O)c2n1Cc1ccc(-c2ccccc2-c2nnn[nH]2)cc1 |  | < 3 | 0.3 |  |  | < 3 |  | 
COc1ccc2nc(C)cc(OCC(=O)Nc3ccccc3OC)c2c1 | 138 | > 150 | 3.9 |  |  |  |  | 
O=c1[nH]c2c(O)ccc([C@@H](O)CNCCc3ccc(CNCCc4ccccc4F)cc3)c2s1 | 22 | 14 | 1.3 |  |  |  |  | 
CNC(=O)c1nc(-c2ccc(Cl)c(S(=O)(=O)Nc3cccc(F)c3F)c2)cnc1N |  | 19.9 | 2.8 |  |  | 51.3 |  | 
O=c1[nH]c2c(O)ccc([C@@H](O)CNCCSCCCOCCc3ccccc3)c2s1 | 75 | > 150 | 2.54 |  |  |  |  | 
Cc1nccn1CCC(C(N)=O)(c1ccccc1)c1ccccc1 [IMIDAFENACIN] |  | 46 | 1.79 |  |  | < 3 |  | 
O=C(O)[C@H](Cc1ccccc1)N1CCC(CN2CCC(Oc3ccc(CO)c(Cl)c3)CC2)CC1 |  | 28 | 0.8 |  |  | < 3 |  | 
Cn1c(=O)c(Oc2ccc(F)cc2F)cc2cnc(NC(CCO)CCO)nc21 [PAMAPIMOD] | 4.57 | < 3 | 1.5 |  |  |  |  | 
CNS(=O)(=O)Cc1ccc2[nH]cc(CCN(C)C)c2c1 |  | 8 | -0.96 |  |  | < 3 |  | 
CN1CCN(CCOc2n[nH]c3ncnc(Nc4ccc(OCc5ccccn5)c(Cl)c4)c23)CC1 |  | 13.5 | 2.45 | 26.3 (≈ 13 µg/mL) |  | 30.2 |  | 
COCC1=C(C(=O)OC(C)OC(=O)OC(C)C)N2C(=O)[C@@H](NC(=O)/C(=N\OC)c3csc(N)n3)[C@H]2SC1 (some centres not stated) [CEFPODOXIME PROXETIL] |  | 115 | 1.7 |  |  | > 150 |  | 
CCC(CC)NC(=O)c1cnn(-c2ccccc2)c1NS(=O)(=O)c1ccc(-c2cnco2)cc1 |  | 52 | 0.8 |  |  | 27 |  | 
C[C@H]1C[C@@H](NS(=O)(=O)c2cc(Br)ccc2Br)CN1C#N | 16 | 39 | 2.13 | 31.6 (≈ 13.4 µg/mL) |  |  |  | 

Compound | microsomal CLint (in vitro [1]; microsomes) [µL/min/mg] | hepatocyte CLint (in vitro [2]) [µL/min/1e6 cells] | logD (physchem [3]; pH 7.4, LogD7.4) | solubility thermodynamic (physchem [4]) [µM] | fraction unbound at 5 h (in vitro [5]) | microsomal CLint (in vitro [1]; liver microsomes) [µL/min/mg] | fraction unbound at 5 h (in vitro [5]; PPB) | logD (physchem [3]; pH 7.4)
CCOc1ccc(CCNCCCSCCNC[C@H](O)c2ccc(O)c3[nH]c(=O)sc23)cc1 |  | 8 | 0.41 |  |  | 75 |  | 
Cc1nc2ncnn2c(O)c1CCOC(=O)c1ccccc1F |  | 129 | 0.99 |  |  | > 150 |  | 
CCNC(=O)c1cnc(N2CCN(C3CCN(Cc4ccc(Cl)cc4F)CC3)[C@@H](CC)C2)c(Cl)c1 | 11 | 38 |  | 91.2 (≈ 47.7 µg/mL) |  |  |  | 
COc1ccc(CNCc2cccc(CCNC[C@H](O)c3ccc(O)c4[nH]c(=O)sc34)c2)cc1 |  | 13 | 0.86 |  |  | 62 |  | 
Oc1nc2c(O)ccc(CCNCCCCCCOCCc3ccccc3)c2s1 | 29 | 88 | 2.21 |  |  |  |  | 
O=c1[nH]c2c(O)ccc([C@@H](O)CNCCc3cccc(CNCCc4ccccc4Cl)c3)c2s1 | 19 | 42 | 1.63 | 118 (≈ 58.5 µg/mL) |  |  |  | 
CCC(CC)NC(=O)c1cnn(C)c1NS(=O)(=O)c1ccc(C)cc1 |  | 27 | 0.36 |  |  | 13 |  | 
O=C(O)COc1ccc(C(=O)c2cccs2)c(Cl)c1Cl | 82 | 61 | -0.84 |  |  |  |  | 
O=c1[nH]c2c(O)ccc([C@@H](O)CNCCc3cccc(CNCc4ccccc4Cl)c3)c2s1 |  | 60 | 1.85 |  |  | 47 |  | 
N[C@@H]1CCCN(c2c(/C=C3\SC(=O)NC3=O)cccc2-c2ccncc2)C1 |  | 8.91 | 1.56 |  |  | 8.51 |  | 
Cc1c(C(=O)Nc2ccccc2)sc2ncnc(O)c12 |  | > 150 | 2.13 | 22.4 (≈ 6.39 µg/mL) |  | 5 |  | 
O=C(O)CCc1ccc(OCc2cccc(Oc3ccccc3)c2)cc1 | 4.9 | 97.7 | 2.47 |  |  |  |  | 
CN(CCNC[C@H](O)c1ccc(O)c2[nH]c(=O)sc12)C(=O)CCOCCc1ccccc1 |  | 43 | 1.21 |  |  | 35 |  | 
Nc1ncnc2c1ncn2[C@@H]1O[C@H](CSCCCNC(=O)Nc2ccccc2)[C@@H](O)[C@H]1O | 9.77 | 28.2 | 1.9 |  |  |  |  | 
Cc1ccc(CCOCCNS(=O)(=O)CCCNCCc2ccc(O)c3nc(O)sc23)cc1 |  | > 150 |  | 372 (≈ 183 µg/mL) |  | > 150 |  | 
COc1ccc(Cc2c(N)n[nH]c2N)cc1 |  | 3.63 | 0.2 |  |  | 5.37 |  | 
CC[C@@H](Nc1c(Nc2cccc(C(=O)N(C)C)c2O)c(=O)c1=O)c1ccccc1 |  | 65 | 2.14 | 646 (≈ 254 µg/mL) |  | < 3 |  | 
Cc1ccc(S(=O)(=O)Nc2c(C(=O)N(C)C3CCCCC3)c(C)nn2-c2ccccc2)cc1 |  | 21 | 1.69 |  |  | 53 |  | 
